Reference: US20200397852A1, “DOSING REGIMENS FOR CELIAC DISEASE” (ImmusanT, Inc., priority 2017, published 2020)
Like-named read-outs stand apart in the source and are kept apart here. Where a SMILES comes first, the peptide text is derived from it. [ ]: non-standard residue; d: D form. pGlu = O=C1CC[C@@H](C(=O)O)N1

Legend:
[1] = pH 7
[2] = Plasma concentrations of Nexvax2 peptides (UHPLC-MS/MS), pre-treatment and 45 minutes post-treatment; type: in vivo, human; settings: 45 minutes after treatment at levels above 300 μg; almost all participants; LLOQ 2 ng/mL
Description: • Weekly Gastrointestinal Symptom Rating Scale (GSRS) scores, and relative change in plasma cytokine levels 4 hours after 150 microgram and higher doses. Plasma concentrations pre- and 45 min post-dose, and villous height to crypt depth ratio (VH:CrD) in 2nd part duodenal biopsies were assessed in Cohort 3.
Pharmacodynamics assessments included a 38plex assay to profile cytokine and chemokine concentrations in plasma before and up to 10 hours post-treatment at visits corresponding to administration of Nexvax2 at the previously determined maximum tolerated dose (150 μg) and at each of the higher dose levels. The percentage of leukocytes in whole blood that corresponded to T cells or helper, cytotoxic, regulatory, or activated (CCR6-positive) T cell subsets was estimated using epigenetic cell counting before and after dosing during the treatment period at times indicated. Pharmacokinetics of the three constituent peptides in Nexvax2 were assessed pre-treatment and 45 minutes post-treatment in cohort 3 at visits corresponding to dose levels 300 μg and above. Serum levels of anti-Nexvax2 antibodies were also assessed in cohort 3 at times shown. A four-week observational period followed the end of treatment visit.
Pharmacokinetics of Nexvax2 peptides was summarised by dose level and presented as mean (95% CI) plasma concentrations; correlation coefficients were used to compare the plasma concentrations of the Nexvax2 peptides. […] Data from cohorts 1 and 2 were analysed separately according to the Nexvax2 starting dose levels of 3 μg or 30 μg. […]
Blood was collected 30 minutes before and 45 minutes after study drug administration. […] Charles River Laboratories Ashland, LLC (Ashland, Ohio, USA) measured the concentrations of NPL001, NPL002, and NPL003. […] Reconstituted sample extracts were analysed with a UHPLC-MS/MS assay using a Waters Acquity® UPLC Peptide BEH C18 Column, 300 Å, 1.7-μm particle-size, 2.1×50 mm column (Waters Corporation, Milford, Mass., USA). […]

[3] = Solubility in normal saline at pH 7

**Q.** For `CC(C)C[C@H](NC(=O)[C@@H]1CCC(=O)N1)C(=O)N[C@@H](CCC(N)=O)C(=O)N1CCC[C@H]1C(=O)N[C@@H](Cc1ccccc1)C(=O)N1CCC[C@H]1C(=O)N[C@@H](CCC(N)=O)C(=O)N1CCC[C@H]1C(=O)N[C@@H](CCC(=O)O)C(=O)N[C@@H](CC(C)C)C(=O)N1CCC[C@H]1C(=O)N[C@@H](Cc1ccc(O)cc1)C(=O)N1CCC[C@H]1C(=O)N[C@@H](CCC(N)=O)C(=O)N1CCC[C@H]1C(=O)N[C@@H](CCC(N)=O)C(N)=O` [NPL001, (pE)LQPFPQPELPYPQPQ-NH2] ([pGlu]LQPFPQPELPYPQPQ-NH2), which solubility [1] is on record?
**A.** Its solubility is > 50 mg/mL.

**Q.** And the “Plasma concentration versus limit of quantification” value [2]?
**A.** The value was “above the limit of quantification”.

**Q.** For `NC(=O)CC[C@H](NC(=O)[C@H](Cc1c[nH]c2ccccc12)NC(=O)[C@@H]1CCCN1C(=O)[C@H](Cc1ccccc1)NC(=O)[C@@H]1CCCN1C(=O)[C@H](CCC(N)=O)NC(=O)[C@H](CCC(=O)O)NC(=O)[C@@H]1CCCN1C(=O)[C@H](CCC(N)=O)NC(=O)[C@@H]1CCCN1C(=O)[C@H](Cc1ccccc1)NC(=O)[C@@H]1CCCN1C(=O)[C@H](CCC(N)=O)NC(=O)[C@@H]1CCC(=O)N1)C(=O)N1CCC[C@H]1C(N)=O` [NPL002, (pE)QPFPQPEQPFPWQP-NH2] ([pGlu]QPFPQPEQPFPWQP-NH2), which solubility [3] is on record?
**A.** Its solubility is ≤ 25 mg/mL.

**Q.** What about the “Plasma concentration versus limit of quantification” value [2] of the same molecule?
**A.** The value was “above the limit of quantification”.

**Q.** Which results are given for `CC[C@H](C)[C@H](NC(=O)[C@@H]1CCCN1C(=O)[C@H](CCC(N)=O)NC(=O)[C@H](CCC(=O)O)NC(=O)[C@@H]1CCCN1C(=O)[C@@H]1CCC(=O)N1)C(=O)N1CCC[C@H]1C(=O)N[C@@H](CCC(=O)O)C(=O)N[C@@H](CCC(N)=O)C(=O)N1CCC[C@H]1C(=O)N[C@@H](CCC(N)=O)C(=O)N1CCC[C@H]1C(=O)N[C@@H](Cc1ccc(O)cc1)C(=O)N1CCC[C@H]1C(=O)N[C@@H](CCC(N)=O)C(=O)N[C@@H](CCC(N)=O)C(N)=O` [NPL003]?
**A.** solubility [3]: > 50 mg/mL; Plasma concentration versus limit of quantification [2]: above the limit of quantification
